Values belong to the compound of their own block, whether it stands above or below them.
Key:
[1] = Food effect (high calorie/high-fat meals) on pharmacokinetics in human subjects (Table 28); format: in vivo; details: tablets 400/100/100 mg; high calorie/high-fat meal
Protocol: The effect of food (high calorie/high-fat meals) on the pharmacokinetics of sofosbuvir/velpatasvir SSD/voxilaprevir SSD tablets (400/100/100 mg). […] As a result, sofosbuvir/velpatasvir SSD/voxilaprevir SSD tablets are administered with food.

[2] = Solid-state properties and open-container stability of sofosbuvir Forms 6 and 7; format: physicochemical
Text: In some embodiments, and the Examples presented herein, the tablet formulation includes sofosbuvir having Form 6 and, optionally, a trace amount of Form 7. […] Form 6 of sofosbuvir is the thermodynamically stable form and remains physically stable when suspended in water. Form 7 of Sofosbuvir, while physically stable in water for short periods of time, can be converted to Form 6 with prolonged stirring.

[3] = Voxilaprevir Form VI pharmacokinetics after single and multiple doses in healthy subjects (Table 2); format: in vivo, human; details: for Ctau: mean
Protocol: Pub. No. 2015/0175625 A1. Initial studies were conducted using the crystalline Form VI of voxilaprevir. As described previously, Form VI of voxilaprevir is characterized by an X-ray powder diffractogram comprising the following peaks (±0.2°): at 14.6, 15.4, and 20.0 °2θ, as determined on a diffractometer using Cu—Kα radiation. Following single and multiple oral doses of voxilaprevir, Form VI, maximum plasma concentrations occurred between 2.0 and 5.0 hours (median tmax). […] Steady-state concentrations of voxilaprevir, Form VI were achieved after 7 days of once-daily dosing across all dose levels (Table 2).

[4] = Relative bioavailability of voxilaprevir amorphous free acid tablets vs Form VI tablets, fasted and fed, healthy subjects (Table 3); format: in vivo, human; details: human, in vivo, oral, single dose 100 mg, healthy subjects, fasted
Text: Accordingly, a spray dried dispersion of voxilaprevir in the amorphous free acid form was selected for incorporation into the tablet formulation.

[5] = Velpatasvir pharmacokinetics after single and multiple oral doses (Table 1); format: in vivo, human; details: for t1/2 / tlast / tmax: median
Protocol: Following single and multiple oral doses of velpatasvir, maximum plasma concentrations occurred between 1.50 and 3.25 hours (median tmax).

[6] = Chemical and physical stability of Formulation G film-coated tablets Lots A and B (Tables 11A, 11B); format: physicochemical; details: packaged Formulation G tablets; 40° C./75% RH and 25° C./60% RH for 6 months
Protocol: In some embodiments, the film-coated tablets were packaged in 75 and 100 mL white HDPE bottles (Lots A and B, respectively, as described in Tables 11A, 11B) with 1 g silica gel desiccant canisters and a polyester fiber coil. The 75 and 100 mL HDPE bottles contained fourteen and twenty eight tablets, respectively. Each HDPE bottle was capped using a continuous thread, child-resistant polypropylene screw cap with an […], aluminum-faced line. The packaged tablets (14 and 28 counts) were evaluated for stability at 40° C./75% RH and 25° C./60% RH. Additionally, the 14-count bottles (without cap) were evaluated for stability under open conditions at 40° C./75% RH.

[7] = Photostability of tablet cores and film-coated tablets per ICH Q1B (Table 12); format: physicochemical; details: for level of degradation products: tablets film-coated to weight gains 2.1 to 5.4%; for loss after exposure to light: uncoated tablet cores
Protocol: Tablet cores and film-coated tablets were evaluated per ICH Q1B guidelines with a total of illumination of more than 1.2 million-lux hours and a total irradiance of more than 200 W·hr/m^2.

[8] = Tablet dissolution, 50 mM sodium acetate buffer pH 5.0 with 2.0% w/v Polysorbate 80, USP Type II, 75 rpm; format: physicochemical; details: for dissolution at 30 minutes: after 4 weeks open at 40° C./75% RH
Protocol: FIGS. 10-12 depict additional dissolution profiles for the sofosbuvir/velpatasvir SSD/voxilaprevir SSD tablets having the formulation described in Table 13 and which were used in phase 1, 2, and 3 clinical studies, where the dissolution testing was conducted at pH 5.0 acetate buffer containing 2.0% w/v polysorbate 80. Four batches of the sofosbuvir/velpatasvir SSD/voxilaprevir SSD tablets were tested, with Batch A manufactured at 100 kg and Batches B, C and D manufactured at 145 kg. All other aspects of the formulation and manufacturing process were otherwise equivalent. […] Moreover, for Batch A, the amount dissolved at 30 min remained between 98 and 100% for sofosbuvir, between 90 and 92% for velpatasvir SSD, and between 89 and 93% for voxilaprevir SSD. […] For Batch D, the amount dissolved at 30 min remained at 100% for sofosbuvir, between 90 and 91% for velpatasvir SSD, and between 89 and 91% for voxilaprevir SSD. Release of velpatasvir SSD and voxilaprevir SSD from the sofosbuvir/velpatasvir SSD/voxilaprevir SSD tablets associated with all four Batches was complete after 60 minutes.

[9] = Tablet dissolution as a function of medium pH and composition (FIGS. 13-15); format: physicochemical; details: for dissolution from tablets: pH 2.0, 4.5 and 6.8 buffers, FaSSIF and FeSSIF; for dissolution from tablets at 60 minutes: pH 4.0 and 5.0 containing 2.0% w/v polysorbate 80
[10] = Stress studies: stability of tablets made with stressed VEL SSD/VOX SSD (water, residual solvent, peroxide, reprocessing, potency; Tables 16-21); format: physicochemical
Protocol: The impact of the following stressors on the physical and chemical stability of the sofosbuvir/velpatasvir SSD/voxilaprevir SSD tablets were evaluated:
(i) Voxilaprevir SSD and velpatasvir SSD, and sofosbuvir/velpatasvir SSD/voxilaprevir SSD tablet water content;
(ii) Copovidone peroxide content in velpatasvir SSD and in voxilaprevir SSD (iii) Reprocessed velpatasvir SSD and voxilaprevir SSD;
(iv) Voxilaprevir SSD and velpatasvir SSD potency (varying the ratio of velpatasvir or voxilaprevir to copovidone); and
(v) Seeding sofosbuvir/velpatasvir SSD/voxilaprevir SSD tablets with crystalline voxilaprevir Form VIII and Form X drug substances.

[11] = BCS classification and pH dependence of solubility; format: physicochemical
[12] = Impact of desiccant and packaging configuration on tablet stability (Tables 24A-24C); format: physicochemical; details: desiccant study (0, 1, 3 g); all conditions, 6 months;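 further: stability of tablets stored with different desiccant amounts and packaging configurations, evaluating physical and chemical stability plus dissolution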
[13] = SSD potency study, tablet Lots A-D, all conditions
[14] = tablets from VEL SSD 6.0% residual ethanol and VOX SSD 2.1% residual acetone, all conditions
[15] = tablets from VEL SSD 7.0% and VOX SSD 3.2% water content, all conditions

effect of food on plasma exposure [1]: does not substantially alter
Compound: C[C@H](NP(=O)(O)OC[C@H]1OC(n2ccc(=O)[nH]c2=O)[C@](C)(F)[C@@H]1O)C(=O)O (stereo partly drawn) [Formulation M2]

effect of food on plasma exposure [1]: does not substantially alter
Compound: C[C@@]1(F)[C@H](O)[C@@H](CO)O[C@H]1n1ccc(=O)[nH]c1=O [Formulation M1]

Compound: CC(C)OC(=O)[C@H](C)N[P@](=O)(OC[C@H]1O[C@@H](n2ccc(=O)[nH]c2=O)[C@](C)(F)[C@@H]1O)Oc1ccccc1 [Form 6, sofosbuvir]
hygroscopicity [2]: non-hygroscopic
photosensitivity [2]: not photosensitive
physical and chemical stability ([2]; open container, 1 month at 40° C./75% RH): physically and chemically stable

Ctau ([3]; multiple dose 30 mg): 1.9 ng/mL
Ctau ([3]; multiple dose 100 mg): 5.7 ng/mL
Ctau ([3]; multiple dose 300 mg): 10.0 ng/mL
steady-state concentrations achieved after ([3]; once-daily dosing, all dose levels): 7 days
t1/2 ([3]; single dose 300 mg, median): 35.49 h
AUC(0-inf) [4]: 326 ng·h/mL
Cmax ([4]; read-out: Cmax): 21.7 ng/mL
Compound: CC[C@@H]1[C@@H]2CN(C(=O)[C@H](C(C)(C)C)NC(=O)O[C@@H]3C[C@H]3CCCCC(F)(F)c3nc4ccc(OC)cc4nc3O2)[C@@H]1C(=O)N[C@]1(C(=O)NS(=O)(=O)C2(C)CC2)C[C@H]1C(F)F [voxilaprevir, Form VI, voxilaprevir]

Compound: COC[C@H]1C[C@@H](c2ncc(-c3ccc4c(c3)COc3cc5c(ccc6nc([C@@H]7CC[C@H](C)N7C(=O)[C@@H](NC(=O)OC)C(C)C)[nH]c65)cc3-4)[nH]2)N(C(=O)[C@H](NC(=O)OC)c2ccccc2)C1 [velpatasvir, methyl {(2S)-1-[(2S,5S)-2-(9-{2-[(2S,4S)-1-{(2R)-2-[(methoxycarbonyl)amino]-2-phenylacetyl}-4-(methoxymethyl)pyrrolidin-2-yl]-1H-imidazol-5-yl}-1,11-dihydroisochromeno[4′,3′:6,7]naphtho[1,2-d]imidazol-2-yl)-5-methylpyrrolidin-1-yl]-3-methyl-1-oxobutan-2-yl}carbamate]
CLss/F ([5]; multiple dose 5 mg, mean): 36,095.7 mL/h
Cmax ([5]; multiple dose 5 mg, mean): 28.3 ng/mL
t1/2 ([5]; multiple dose 5 mg): 13.73 h
tlast ([5]; multiple dose 5 mg): 24.00 h
tmax ([5]; multiple dose 5 mg): 2.00 h
CLss/F ([5]; multiple dose 50 mg, mean): 19,593.0 mL/h
Cmax ([5]; multiple dose 50 mg, mean): 411.4 ng/mL
Ctau ([5]; multiple dose 50 mg, mean): 37.9 ng/mL
t1/2 ([5]; multiple dose 50 mg): 13.02 h
tlast ([5]; multiple dose 50 mg): 24.00 h
CLss/F ([5]; multiple dose 150 mg, mean): 45,082.3 mL/h
Cmax ([5]; multiple dose 150 mg, mean): 669.4 ng/mL
Ctau ([5]; multiple dose 150 mg, mean): 63.4 ng/mL
t1/2 ([5]; multiple dose 150 mg): 15.15 h
tlast ([5]; multiple dose 150 mg): 24.00 h
CLss/F ([5]; multiple dose 450 mg, mean): 58,804.6 mL/h
Cmax ([5]; multiple dose 450 mg, mean): 1195.7 ng/mL
Ctau ([5]; multiple dose 450 mg, mean): 127.7 ng/mL
t1/2 ([5]; multiple dose 450 mg): 11.74 h
tlast ([5]; multiple dose 450 mg): 24.00 h
tmax ([5]; multiple dose 450 mg): 3.00 h
mean plasma concentration at 24 hours postdose relative to protein-adjusted EC50 for genotype 1 to 6 HCV replicons ([5]; multiple once-daily doses greater than 5 mg): above
CL/F ([5]; single dose 5 mg, mean): 58,398.0 mL/h
tlast ([5]; single dose 5 mg): 24.00 h
CL/F ([5]; single dose 50 mg, mean): 19,188.4 mL/h
Clast ([5]; single dose 50 mg, mean): 2.34 ng/mL
tlast ([5]; single dose 50 mg): 72.00 h
CL/F ([5]; single dose 100 mg, mean): 24,617.9 mL/h
Clast ([5]; single dose 100 mg, mean): 2.85 ng/mL
tlast ([5]; single dose 100 mg): 95.00 h
CL/F ([5]; single dose 150 mg, excluding one patient, mean (% CV)): ^bMean (% CV) CL/F for the VEL 150 mg group (excluding one patient) was 31,403.8 (40.5) mL/h.
CL/F ([5]; single dose 150 mg, mean): 72,185.5 mL/h
Clast ([5]; single dose 150 mg, mean): 2.23 ng/mL
tlast ([5]; single dose 150 mg): 96.00 h
CL/F ([5]; single dose 450 mg, mean): 53,676.4 mL/h
Clast ([5]; single dose 450 mg, mean): 3.28 ng/mL
tlast ([5]; single dose 450 mg): 96.00 h
total impurities/degradation products [6]: 0.0%
level of degradation products [7]: 0.4%
loss after exposure to light [7]: up to 0.3%
dissolution at 30 minutes ([8]; potency study Lot A): 86%
dissolution at 30 minutes ([8]; potency study Lot B): 91%
dissolution at 30 minutes ([8]; potency study Lots C and D): 89-93%
release of velpatasvir at 30 minutes ([8]; tablets containing neat amorphous velpatasvir free base): 62%
release of velpatasvir at 30 minutes ([8]; tablets containing velpatasvir SSD): 91%
dissolution from tablets [9]: Incomplete dissolution
dissolution from tablets at 60 minutes [9]: complete dissolution
total impurities/degradation products [10, 13]: 0.0%
total impurities/degradation products ([10]; tablets from SSDs with copovidone 544 ppm (VEL SSD) and 655 ppm (VOX SSD) peroxides): 0.0%
total impurities/degradation products [10, 14]: 0.0%
total impurities/degradation products [10, 15]: 0.0%
BCS Class [11]: BCS Class 4
aqueous solubility, pH dependence [11]: pH-dependent

level of degradation products [7]: 0.0%
loss after exposure to light [7]: no change
dissolution at 30 minutes ([8]; potency study Lot A): 85%
dissolution at 30 minutes ([8]; potency study Lot B): 91%
dissolution at 30 minutes ([8]; potency study Lots C and D): 92%
voxilaprevir released at 30 minutes ([8]; tablets containing 0% w/w crystalline voxilaprevir): 91%
voxilaprevir released at 30 minutes ([8]; tablets containing neat amorphous voxilaprevir free acid): 76%
voxilaprevir released at 30 minutes ([8]; tablets containing voxilaprevir SSD): 91%
voxilaprevir released at 30 minutes ([8]; tablets spiked with 5% w/w Form VIII or Form X): 84%
voxilaprevir released at 30 minutes ([8]; tablets spiked with 10% w/w Form VIII or Form X): 80%
voxilaprevir released at 30 minutes ([8]; tablets spiked with 20% w/w Form VIII or Form X): 73%
dissolution from tablets [9]: Incomplete dissolution
dissolution from tablets at 60 minutes [9]: complete dissolution
total impurities/degradation products [10, 13]: 0.7%
total impurities/degradation products [10, 14]: 0.0%
total impurities/degradation products [10, 15]: 0.0%
total impurities/degradation products [12]: 0.0%
BCS Class [11]: BCS Class 2
aqueous solubility, pH dependence [11]: pH-dependent
Compound: CC[C@@H]1[C@@H]2CN(C(=O)[C@H](C(C)(C)C)NC(=O)O[C@@H]3C[C@H]3CCCCC(F)(F)c3nc4ccc(OC)cc4nc3O2)[C@@H]1C(=O)N[C@]1(C(=O)NS(=O)(=O)C2(C)CC2)C[C@H]1C(F)F [voxilaprevir, (1aR,5S,8S,9S,10R,22aR)-5-tert-butyl-N-{(1R,2R)-2-(difluoromethyl)-1-[(1-methylcyclopropanesulfonyl)carbamoyl]cyclopropyl}-9-ethyl-18,18-difluoro-14-methoxy-3,6-dioxo-1,1a,3,4,5,6,9,10,18,19,20,21,22,22a-tetradecahydro-8H-7,10-methanocyclopropa[18,19][1,10,3,6]dioxadiazacyclononadecino[11,12-b]quinoxaline-8-carboxamide]

Source: patent US11338007B2, “Combination formulation of three antiviral compounds” (priority 2016, dated 2022)
